The target of one test is Mcl-1 (Homo sapiens (Human), UniProt Q07820). Description: TR-FRET binding assay, FITC-Bak peptide and MBP-tagged Mcl-1. The note with it: read-out: Ki for Inhibition of Mcl-1 by TR-FRET assay. The procedure:
Compounds are diluted in DMSO in a 16-point, semilog serial dilution scheme. […] The plate was mixed and incubated for 3 hours at room temperature. […] TR-FRET signal is plotted and IC50 and Ki values are calculated in the same manner as the fluorescence polarization anisotropy based competition assays.
(In TR-FRET formats the signal depends on donor and acceptor labels being close together.)

The test system of test [1] is H929 human cancer cell lines. Description: Cellular viability / proliferation (Cell TiterGlo, 72 h). The format is cell-based. As to conditions: Homo sapiens, NCI-H929, 72 h, read-out: GI50 on cellular proliferation of H929 human cancer cell lines, H929 cells, 72 h, Cell TiterGlo, 10% FBS. Put shortly: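 Plating is at 1,000 cells/well in 10% FBS medium; after 24 h, compound is added as a 2-fold series starting at 50 μM with under 1% DMSO.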

Chain of Mcl-1 (Q07820 172-327): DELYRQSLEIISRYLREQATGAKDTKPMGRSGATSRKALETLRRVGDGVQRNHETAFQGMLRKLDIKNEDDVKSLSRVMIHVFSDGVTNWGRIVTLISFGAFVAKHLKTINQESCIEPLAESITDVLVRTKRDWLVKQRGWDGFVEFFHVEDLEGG

Turning to `CCOCCn1c(C(=O)O)cc2cc(C)cc(N3C[C@@H](C)n4c(c(CCCOc5cc(C)c(Cl)c(C)c5)c5ccc(Cl)c(-c6c(C)nn(C)c6C)c54)C3=O)c21` [Example 579, (R)-7-(7-chloro-10-(3-(4-chloro-3,5-dimethylphenoxy)propyl)-4-methyl-1-oxo-6-(1,3,5-trimethyl-1H-pyrazol-4-yl)-3,4-dihydropyrazino[1,2-a]indol-2(1H)-yl)-1-(2-ethoxyethyl)-5-methyl-1H-indole-2-carboxylic acid], the Ki on Mcl-1 was less than 0.2 nM. In addition, in test [1], the GI50 was found to be 240 nM.
On the same counts, the results for `Cc1cccc(Cn2c(C(=O)O)cc3cc(OCCN(C)C)cc(N4C[C@@H](C)n5c(c(CCCOc6cc(C)c(Cl)c(C)c6)c6ccc(Cl)c(-c7c(C)ncnc7C)c65)C4=O)c32)n1` [Example 566, (R)-7-(7-chloro-10-(3-(4-chloro-3,5-dimethylphenoxy)propyl)-6-(4,6-dimethylpyrimidin-5-yl)-4-methyl-1-oxo-3,4-dihydropyrazino[1,2-a]indol-2(1H)-yl)-5-(2-(dimethylamino)ethoxy)-1-((6-methylpyridin-2-yl)methyl)-1H-indole-2-carboxylic acid] are less than 0.2 nM and 410 nM.
On the same counts, the results for `Cc1cc(OCCCc2c3n(c4c(-c5c(C)nn(C)c5C)c(Cl)ccc24)[C@H](C)CN(c2cc(NC(=O)CN(C)C)cc4c(C(=O)O)cn(C)c24)C3=O)cc(C)c1Cl` [Example 542, (R)-7-(7-Chloro-10-(3-(4-chloro-3,5-dimethylphenoxy)propyl)-4-methyl-1-oxo-6-(1,3,5-trimethyl-1H-pyrazol-4-yl)-3,4-dihydropyrazino[1,2-a]indol-2(1H)-yl)-5-(2-(dimethylamino)acetamido)-1-methyl-1H-indole-3-carboxylic acid] are 0.48 nM and 3300 nM.
The corresponding values for `C=Cc1cccc(Cn2c(C(=O)O)cc3cc(C)cc(N4C[C@@H](C)n5c(c(CCCOc6cc(C)c(Cl)c(C)c6)c6ccc(Cl)c(-c7c(C)nn(C)c7C)c65)C4=O)c32)n1` [Example 517, (R)-7-(7-Chloro-10-(3-(4-chloro-3,5-dimethylphenoxy)propyl)-4-methyl-1-oxo-6-(1,3,5-trimethyl-1H-pyrazol-4-yl)-3,4-dihydropyrazino[1,2-a]indol-2(1H)-yl)-5-methyl-1-((6-vinylpyridin-2-yl)methyl)-1H-indole-2-carboxylic acid] are 0.36 nM and 760 nM.
With `COc1cc(N2C[C@@H](C)n3c(c(CCCOc4cc(C)c(Cl)c(C)c4)c4ccc(Cl)c(-c5c(C)ncnc5C)c43)C2=O)c2c(c1)cc(C(=O)O)n2Cc1cccc(C)n1` [Example 572, (R)-7-(7-chloro-10-(3-(4-chloro-3,5-dimethylphenoxy)propyl)-6-(4,6-dimethylpyrimidin-5-yl)-4-methyl-1-oxo-3,4-dihydropyrazino[1,2-a]indol-2(1H)-yl)-5-methoxy-1-((6-methylpyridin-2-yl)methyl)-1H-indole-2-carboxylic acid], the Ki on Mcl-1 was less than 0.2 nM. Further, the GI50 in test [1] is 300 nM.
For `COCCn1cnc(-c2ccc3c(c2)c(N2C[C@@H](C)n4c(c(CCCOc5cc(C)c(Cl)c(C)c5)c5ccc(Cl)c(-c6c(C)nc(CN7CCN(C)C(=O)C7)nc6C)c54)C2=O)cn3CCN2CCOCC2)n1` [Example 722, (R)-7-Chloro-10-(3-(4-chloro-3,5-dimethylphenoxy)propyl)-6-(4,6-dimethyl-2-((4-methyl-3-oxopiperazin-1-yl)methyl)pyrimidin-5-yl)-2-(5-(1-(2-methoxyethyl)-1H-1,2,4-triazol-3-yl)-1-(2-morpholinoethyl)-1H-indol-3-yl)-4-methyl-3,4-dihydropyrazino[1,2-a]indol-1(2H)-one], the Ki at Mcl-1 came out at 3.1 nM. Further, the GI50 in test [1] was less than 200 nM.
On the same counts, the results for `Cc1cc(OCCCc2c3n(c4c(-c5c(C)nn(C)c5C)c(Cl)ccc24)[C@H](C)CN(c2cn(CCN4CCCC4)c4ccc(C(=O)O)cc24)C3=O)cc(C)c1Cl` [Example 511, (R)-3-(7-Chloro-10-(3-(4-chloro-3,5-dimethylphenoxy)propyl)-4-methyl-1-oxo-6-(1,3,5-trimethyl-1H-pyrazol-4-yl)-3,4-dihydropyrazino[1,2-a]indol-2(1H)-yl)-1-(2-(pyrrolidin-1-yl)ethyl)-1H-indole-5-carboxylic acid] are less than 0.2 nM and 300 nM.
The corresponding values for `Cc1cc(OCCCc2c3n(c4c(-c5c(C)nn(C)c5C)c(Cl)ccc24)[C@H](C)CN(c2cccc4cc(C(=O)O)n(Cc5cnn(C)n5)c24)C3=O)cc(C)c1Cl` [Example 570, (R)-7-(7-chloro-10-(3-(4-chloro-3,5-dimethylphenoxy)propyl)-4-methyl-1-oxo-6-(1,3,5-trimethyl-1H-pyrazol-4-yl)-3,4-dihydropyrazino[1,2-a]indol-2(1H)-yl)-1-((2-methyl-2H-1,2,3-triazol-4-yl)methyl)-1H-indole-2-carboxylic acid] are less than 0.2 nM and 560 nM.
`Cc1cc(OCCCc2c3n(c4c(-c5c(C)nn(C)c5C)c(Cl)ccc24)[C@H](C)CN(c2cc(NC(=O)CCN(C)C)cc4c(C(=O)O)cn(C)c24)C3=O)cc(C)c1Cl` [Example 541, (R)-7-(7-Chloro-10-(3-(4-chloro-3,5-dimethylphenoxy)propyl)-4-methyl-1-oxo-6-(1,3,5-trimethyl-1H-pyrazol-4-yl)-3,4-dihydropyrazino[1,2-a]indol-2(1H)-yl)-5-(3-(dimethylamino)propanamido)-1-methyl-1H-indole-3-carboxylic acid]: the Ki on Mcl-1 amounted to 0.53 nM. Also, the GI50 in test [1] stood at 1700 nM.
The corresponding values for `Cc1cc(OCCCc2c3n(c4c(-c5c(C)nn(C)c5C)c(Cl)ccc24)[C@H](C)CN(c2cc(CN4CCOCC4)cc4cc(C(=O)O)n(C)c24)C3=O)cc(C)c1Cl` [Example 623, (R)-7-(7-chloro-10-(3-(4-chloro-3,5-dimethylphenoxy)propyl)-4-methyl-1-oxo-6-(1,3,5-trimethyl-1H-pyrazol-4-yl)-3,4-dihydropyrazino[1,2-a]indol-2(1H)-yl)-1-methyl-5-(morpholinomethyl)-1H-indole-2-carboxylic acid] are less than 0.2 nM and less than 200 nM.
The corresponding values for `COCCn1cc(N2C[C@@H](C)n3c(c(CCCOc4cc(C)c(Cl)c(C)c4)c4ccc(Cl)c(-c5c(C)nn(C)c5C)c43)C2=O)c2cc(-c3ncn(CC4COC4)n3)ccc21` [Example 581, (R)-7-Chloro-10-(3-(4-chloro-3,5-dimethylphenoxy)propyl)-2-(1-(2-methoxyethyl)-5-(1-(oxetan-3-ylmethyl)-1H-1,2,4-triazol-3-yl)-1H-indol-3-yl)-4-methyl-6-(1,3,5-trimethyl-1H-pyrazol-4-yl)-3,4-dihydropyrazino[1,2-a]indol-1(2H)-one] are 3.7 nM and 250 nM.
On the same counts, the results for `COc1ccc(N2C[C@@H](C)n3c(c(CCCOc4cc(C)c(Cl)c(C)c4)c4ccc(Cl)c(-c5c(C)nn(C)c5C)c43)C2=O)c2c1cc(C(=O)O)n2Cc1cc(C)ccn1` [Example 582, (R)-7-(7-chloro-10-(3-(4-chloro-3,5-dimethylphenoxy)propyl)-4-methyl-1-oxo-6-(1,3,5-trimethyl-1H-pyrazol-4-yl)-3,4-dihydropyrazino[1,2-a]indol-2(1H)-yl)-4-methoxy-1-((4-methylpyridin-2-yl)methyl)-1H-indole-2-carboxylic acid] are 0.28 nM and 220 nM.
In the case of `Cc1ccnc(Cn2c(C(=O)O)cc3cc(C)cc(N4C[C@@H](C)n5c(c(CCCOc6cc(C)c(Cl)c(C)c6)c6ccc(Cl)c(-c7c(C)ncnc7C)c65)C4=O)c32)c1` [Example 577, (R)-7-(7-chloro-10-(3-(4-chloro-3,5-dimethylphenoxy)propyl)-6-(4,6-dimethylpyrimidin-5-yl)-4-methyl-1-oxo-3,4-dihydropyrazino[1,2-a]indol-2(1H)-yl)-5-methyl-1-((4-methylpyridin-2-yl)methyl)-1H-indole-2-carboxylic acid], the Ki at Mcl-1 was less than 0.2 nM. For the same compound, the GI50 in test [1] turned out to be 230 nM.
Take `Cc1cc(OCCCc2c3n(c4c(-c5c(C)nn(C)c5C)c(Cl)ccc24)[C@H](C)CN(c2cc(OCC4CC4)cc4cc(C(=O)O)n(C)c24)C3=O)cc(C)c1Cl` [Example 485, (R)-7-(7-Chloro-10-(3-(4-chloro-3,5-dimethylphenoxy)propyl)-4-methyl-1-oxo-6-(1,3,5-trimethyl-1H-pyrazol-4-yl)-3,4-dihydropyrazino[1,2-a]indol-2(1H)-yl)-5-(cyclopropylmethoxy)-1-methyl-1H-indole-2-carboxylic acid]: at Mcl-1, the Ki worked out at 0.35 nM. Further, the GI50 in test [1] amounted to 410 nM.
On the same counts, the results for `COc1cc(N2C[C@@H](C)n3c(c(CCCOc4cc(C)c(Cl)c(C)c4)c4ccc(Cl)c(-c5c(C)nn(C)c5C)c43)C2=O)c2c(c1)cc(C(=O)O)n2Cc1cccc(C)n1` [Example 536, (R)-7-(7-Chloro-10-(3-(4-chloro-3,5-dimethylphenoxy)propyl)-4-methyl-1-oxo-6-(1,3,5-trimethyl-1H-pyrazol-4-yl)-3,4-dihydropyrazino[1,2-a]indol-2(1H)-yl)-5-methoxy-1-((6-methylpyridin-2-yl)methyl)-1H-indole-2-carboxylic acid] are less than 0.2 nM and less than 200 nM.
The corresponding values for `Cc1ccnc(Cn2c(C(=O)O)cc3cc(OCCN(C)C)cc(N4C[C@@H](C)n5c(c(CCCOc6cc(C)c(Cl)c(C)c6)c6ccc(Cl)c(-c7c(C)ncnc7C)c65)C4=O)c32)c1` [Example 584, (R)-7-(7-chloro-10-(3-(4-chloro-3,5-dimethylphenoxy)propyl)-6-(4,6-dimethylpyrimidin-5-yl)-4-methyl-1-oxo-3,4-dihydropyrazino[1,2-a]indol-2(1H)-yl)-5-(2-(dimethylamino)ethoxy)-1-((4-methylpyridin-2-yl)methyl)-1H-indole-2-carboxylic acid] are less than 0.2 nM and 1000 nM.

Broadly, the Ki is the dissociation constant of the complex between target and ligand, obtained from inhibition or displacement.

The record behind these values is patent US11596639B2, “Substituted indole Mcl-1 inhibitors” (Vanderbilt University, priority 2016, dated 2023).
